Target: CXCR4 (Homo sapiens, UniProt P61073)
Assay: Competition with 125I-SDF-1α binding to CEMx174 cells
Set-up: host or cells: CEMx174 (174xCEM)
Conditions: room temperature, 0.1% sodium azide, FIG. 7B, 7C
Protocol: FIGS. 7A through 7C depicts the inhibition of chemokine receptor ligand binding by peptide pre-treatment. FIG. 7A. Effect of pre-treatment with peptides 15K and 15D on the binding of MIP-1β to SupT1/CCR5 cells; FIG. 7B. Effect of pre-treatment with peptides 15K and 1SD on the binding of SDF-1α to CEMx174 cells; and FIG. 7C. Effect of pre-treatment with 15K and control peptide 15GIG on the binding of SDF-1α to CEmx174 cells. Binding studies were performed as described in Materials and Methods.
Binding assays were performed with HEK-CCR5 or HEK CXCR4 in triplicate by adding unlabeled competitor (anti-coreceptor binding peptide or control chemokine) and radiolabeled chemokine, 0.2 ng/ml (^125I-MIP-1β or SDF-1α, specific activity 2000 Ci/mmol, NEN Life Science Products) to a cell suspension (4×10^5 cells in 200 μl) in RPMI 1640 supplemented with 1% bovine serum albumin and 25 mM HEPES pH 8.0 (binding medium). Cells were then incubated at 22° C. for 40 min with continuous rotation. After incubation cells were transferred to the tubes containing 800 μl of 10% sucrose in PBS and harvested by centrifugation. The supernatant was aspirated and the cell-associated radioactivity was measured using a 1272 Wallac gamma counter. Binding assays were performed with the 174xCEM and Sup-T1 cells expressing CCR5 in duplicates by adding unlabeled competitor (peptide or control chemokine) and radiolabeled chemokine, 0.2 ng/ml (^125I-MIP-1β or ^125I-SDF-1α, specific activity 2000 Ci/mmol, NEN life Science Products) to 300 μl cell suspension (4×10^6 cells/ml) in RPMI 1640 supplemented with 1% bovine serum albumin, 0.1% sodium azide and 25 mM HEPES pH 8.0 (binding medium). Cells were then incubated at 22° C. for 30 min with continuous rotation. After incubation cells were transferred to the tubes containing 800 μl of 10% sucrose in PBS and harvested by centrifugation, the supematant was aspirated and the cell-associated radioactivity was measured using a 1272 Wallac gamma counter. The data were analyzed by nonlinear regression using the computer program GraphPad Prizm 3.0. […]

Chain of CXCR4 (P61073 whole entry): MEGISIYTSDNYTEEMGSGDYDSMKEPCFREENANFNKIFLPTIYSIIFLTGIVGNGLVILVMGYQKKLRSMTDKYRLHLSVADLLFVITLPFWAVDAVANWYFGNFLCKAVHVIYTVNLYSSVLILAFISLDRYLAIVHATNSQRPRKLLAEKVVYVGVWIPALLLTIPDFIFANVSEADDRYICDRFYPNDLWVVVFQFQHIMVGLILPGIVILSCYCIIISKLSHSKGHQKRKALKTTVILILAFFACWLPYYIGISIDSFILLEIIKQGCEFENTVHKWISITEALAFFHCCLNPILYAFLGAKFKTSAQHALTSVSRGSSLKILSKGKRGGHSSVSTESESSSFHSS

Row | Substance | inhibition of SDF-1α binding to CXCR4
1 | I R K A H C N I S R A D W N D [Peptide 15D] | competitively inhibited chemokine binding
2 | IRKAHCNISRAKWND [Peptide 15K] | competitively inhibited chemokine binding

Reference: patent US20060116325A1, “Methods and compositions for inhibiting hiv-coreceptor interactions” (priority 2001, published 2006)
